The text below walks through data of patent US12492188B2, “1H-benzo[D]imidazole derivatives as TLR9 inhibitors for the treatment of fibrosis” (BRISTOL-MYERS SQUIBB COMPANY, priority 2020, dated 2025).

A word on the IC50: it is the concentration that inhibits the measured activity by half.

Like-named read-outs stand apart in the source and are kept apart here.

Assay type in all cases: cell-based
The target in one experiment is T1, human TLR9 (Homo sapiens, UniProt Q9NR96).
T1 construct: host or cells: HEK-Blue cells (HEK293-derived reporter line)
T1 sequence (Q9NR96 26-1032): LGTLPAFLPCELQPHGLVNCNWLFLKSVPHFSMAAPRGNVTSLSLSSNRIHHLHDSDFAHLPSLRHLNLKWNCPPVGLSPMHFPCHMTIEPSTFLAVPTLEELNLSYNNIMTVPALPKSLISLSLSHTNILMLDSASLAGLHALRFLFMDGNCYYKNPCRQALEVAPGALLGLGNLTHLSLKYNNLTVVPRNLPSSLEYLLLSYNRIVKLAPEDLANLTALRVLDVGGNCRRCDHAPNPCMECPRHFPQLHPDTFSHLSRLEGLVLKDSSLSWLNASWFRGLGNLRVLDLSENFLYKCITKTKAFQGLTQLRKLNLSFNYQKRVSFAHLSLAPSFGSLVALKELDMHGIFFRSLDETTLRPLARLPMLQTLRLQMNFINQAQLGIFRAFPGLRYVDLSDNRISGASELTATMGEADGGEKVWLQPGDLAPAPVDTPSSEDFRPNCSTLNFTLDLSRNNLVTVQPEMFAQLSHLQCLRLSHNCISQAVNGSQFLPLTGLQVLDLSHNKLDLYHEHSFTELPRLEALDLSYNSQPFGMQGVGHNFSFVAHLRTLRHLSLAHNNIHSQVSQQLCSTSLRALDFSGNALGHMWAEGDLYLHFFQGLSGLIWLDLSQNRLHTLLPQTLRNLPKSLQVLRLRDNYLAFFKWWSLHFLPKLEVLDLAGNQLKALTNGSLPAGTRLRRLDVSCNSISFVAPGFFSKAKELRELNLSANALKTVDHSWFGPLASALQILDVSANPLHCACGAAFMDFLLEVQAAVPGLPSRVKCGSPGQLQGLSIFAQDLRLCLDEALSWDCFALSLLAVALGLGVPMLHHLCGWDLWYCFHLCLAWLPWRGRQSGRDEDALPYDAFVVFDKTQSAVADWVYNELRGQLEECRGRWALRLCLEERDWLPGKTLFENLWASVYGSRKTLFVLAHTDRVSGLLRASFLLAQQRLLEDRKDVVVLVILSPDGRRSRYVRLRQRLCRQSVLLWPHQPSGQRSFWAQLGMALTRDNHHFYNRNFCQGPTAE
As to the kind of experiment: TLR9 inhibition reporter assay (HEK-Blue cells, secreted embryonic alkaline phosphatase reporter). The gist of the method:
(§1)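 Inhibitors are tested in dose response (0.05 nM–50 μM) on HEK-Blue reporter cells expressing human TLR7, TLR8 or TLR9. After 30 min at room temperature, each line is stimulated with its own agonist (gardiquimod 7.5 μM, R848 15.9 μM or ODN2006 5 nM, final) and SEAP is measured 22 h later.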
Background: In a reporter assay the amount or activity of a reporter protein is the signal.

Another experiment deals with T2, human TLR7 (Homo sapiens, UniProt Q9NYK1).
T2 construct: host or cells: HEK-Blue cells (HEK293-derived reporter line)
T2 sequence (Q9NYK1 27-1049): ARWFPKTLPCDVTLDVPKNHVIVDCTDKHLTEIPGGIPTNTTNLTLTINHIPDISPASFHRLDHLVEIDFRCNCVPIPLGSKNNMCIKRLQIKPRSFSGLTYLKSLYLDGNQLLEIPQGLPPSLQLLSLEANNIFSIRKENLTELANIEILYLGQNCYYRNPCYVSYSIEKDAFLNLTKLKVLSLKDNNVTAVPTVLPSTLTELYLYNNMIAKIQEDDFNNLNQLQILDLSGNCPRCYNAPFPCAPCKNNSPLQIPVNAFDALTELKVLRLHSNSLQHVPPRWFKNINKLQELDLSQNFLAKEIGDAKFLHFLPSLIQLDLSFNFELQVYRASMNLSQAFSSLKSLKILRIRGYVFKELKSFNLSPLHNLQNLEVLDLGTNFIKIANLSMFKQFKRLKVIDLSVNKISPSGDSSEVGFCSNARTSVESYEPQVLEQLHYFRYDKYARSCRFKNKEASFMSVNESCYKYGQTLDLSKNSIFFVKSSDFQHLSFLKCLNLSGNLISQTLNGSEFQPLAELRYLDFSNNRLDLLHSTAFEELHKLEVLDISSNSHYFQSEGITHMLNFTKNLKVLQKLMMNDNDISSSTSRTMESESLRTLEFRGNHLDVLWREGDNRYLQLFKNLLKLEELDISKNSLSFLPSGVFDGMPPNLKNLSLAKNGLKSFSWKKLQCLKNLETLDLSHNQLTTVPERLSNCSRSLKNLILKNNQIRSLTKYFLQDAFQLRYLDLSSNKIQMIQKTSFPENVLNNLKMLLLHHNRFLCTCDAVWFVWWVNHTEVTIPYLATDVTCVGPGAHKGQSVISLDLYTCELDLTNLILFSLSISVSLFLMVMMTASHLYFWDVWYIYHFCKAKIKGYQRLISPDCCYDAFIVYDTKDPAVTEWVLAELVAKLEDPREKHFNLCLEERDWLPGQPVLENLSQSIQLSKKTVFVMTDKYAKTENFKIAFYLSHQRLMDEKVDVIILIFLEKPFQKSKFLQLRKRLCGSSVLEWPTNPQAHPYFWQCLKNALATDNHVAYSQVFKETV
Nature of the experiment: TLR7 inhibition reporter assay (HEK-Blue cells, secreted embryonic alkaline phosphatase reporter). Conditions: HEK-Blue cells overexpressing human TLR7, stimulated with gardiquimod 7.5 μM; read-out: TLR 7 IC50. The gist of the method:
as §1

A further experiment concerns the target T3, human TLR8 (Homo sapiens, UniProt Q9NR97).
T3 construct: host or cells: HEK-Blue cells (HEK293-derived reporter line)
T3 sequence (Q9NR97 27-1041): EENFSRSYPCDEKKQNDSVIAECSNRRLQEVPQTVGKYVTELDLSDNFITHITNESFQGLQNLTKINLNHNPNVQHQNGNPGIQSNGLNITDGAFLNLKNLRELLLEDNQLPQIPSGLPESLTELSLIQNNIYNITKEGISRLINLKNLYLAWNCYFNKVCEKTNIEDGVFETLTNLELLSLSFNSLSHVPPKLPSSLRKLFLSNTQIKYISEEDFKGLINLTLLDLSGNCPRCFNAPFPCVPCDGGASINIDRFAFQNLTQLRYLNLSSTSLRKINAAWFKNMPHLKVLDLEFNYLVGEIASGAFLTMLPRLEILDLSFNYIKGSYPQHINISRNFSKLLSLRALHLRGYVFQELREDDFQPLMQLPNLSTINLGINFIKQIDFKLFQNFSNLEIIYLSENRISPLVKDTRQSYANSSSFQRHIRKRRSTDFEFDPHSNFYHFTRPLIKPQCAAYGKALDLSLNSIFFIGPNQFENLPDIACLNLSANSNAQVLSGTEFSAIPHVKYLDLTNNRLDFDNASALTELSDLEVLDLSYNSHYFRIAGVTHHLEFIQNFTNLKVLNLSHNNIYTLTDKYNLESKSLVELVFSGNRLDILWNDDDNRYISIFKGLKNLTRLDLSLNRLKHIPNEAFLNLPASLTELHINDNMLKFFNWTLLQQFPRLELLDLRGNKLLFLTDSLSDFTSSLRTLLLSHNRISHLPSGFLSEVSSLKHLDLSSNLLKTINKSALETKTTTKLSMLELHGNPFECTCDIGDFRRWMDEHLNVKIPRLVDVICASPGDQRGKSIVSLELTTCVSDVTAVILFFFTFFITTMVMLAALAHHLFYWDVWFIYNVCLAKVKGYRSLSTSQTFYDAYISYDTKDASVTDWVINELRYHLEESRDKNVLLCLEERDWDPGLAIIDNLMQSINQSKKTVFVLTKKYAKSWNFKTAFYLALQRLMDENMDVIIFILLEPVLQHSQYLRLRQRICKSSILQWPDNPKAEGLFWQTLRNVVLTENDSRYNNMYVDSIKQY
As to the kind of experiment: TLR8 inhibition reporter assay (HEK-Blue cells, secreted embryonic alkaline phosphatase reporter). The note with it: HEK-Blue cells overexpressing human TLR8, stimulated with R848 15.9 μM; read-out: TLR 8 IC50. Summed up: as §1

[1] abbreviates: HEK-Blue cells overexpressing human TLR9, stimulated with ODN2006 5 nM, read-out: TLR 9 IC50.
Where [2] appears, read: HEK-Blue human TLR9 reporter cells.

As to `Cn1c(-c2ccc(S(C)(=O)=O)cc2)nc2c(F)c(C3CCN(C4CC5CCC(C4)N5CC4CC4)CC3)ccc21` (single isomer, unassigned) [Example 192, 5-(1-(8-(cyclopropylmethyl)-8-azabicyclo[3.2.1]octan-3-yl)piperidin-4-yl)-4-fluoro-1-methyl-2-(4-(methylsulfonyl)phenyl)-1H-benzo[d]imidazole], the IC50 at human TLR9 was 190 nM; at human TLR9 (setting [1]) it was 186 nM; at human TLR7 it was more than 50 µM; on human TLR8, more than 50 µM.
Regarding `CC(C)CN1CCC(N2CCC(c3cc(F)c4nc(-c5ccc(S(C)(=O)=O)cc5)n(C)c4c3)CC2)CC1` [Example 278, 4-fluoro-6-(1′-isobutyl-[1,4′-bipiperidin]-4-yl)-1-methyl-2-(4-(methylsulfonyl)phenyl)-1H-benzo[d]imidazole], the IC50 against human TLR9 is 58 nM; at human TLR9 (setting [1]), 58 nM; on human TLR7, 9 µM; at human TLR8, more than 50 µM.
On to `Cn1c(-c2ccc(S(C)(=O)=O)cc2)nc2c(F)cc(C3CCN(C4CC5CCC(C4)N5CC4CC4)CC3)cc21` (single isomer, unassigned) [Example 283, 6-(1-(8-(cyclopropylmethyl)-8-azabicyclo[3.2.1]octan-3-yl)piperidin-4-yl)-4-fluoro-1-methyl-2-(4-(methylsulfonyl)phenyl)-1H-benzo[d]imidazole], for which the IC50 was 16 nM on human TLR9 (setting [1]), 16 nM at human TLR9 (setting [2]), 4.7 µM on human TLR7 and more than 50 µM on human TLR8.
In the case of `Cn1c(-c2ccc(S(C)(=O)=O)cc2)nc2ccc(C3CCN(C4CCN(C5CC5)CC4)CC3)c(F)c21` [Example 260, 6-(1′-cyclopropyl-[1,4′-bipiperidin]-4-yl)-7-fluoro-1-methyl-2-(4-(methylsulfonyl)phenyl)-1H-benzo[d]imidazole], the IC50 was 660 nM at human TLR9, 660 nM on human TLR9 (setting [1]), 21.5 µM at human TLR7 and more than 50 µM at human TLR8.
For `CS(=O)(=O)c1ccc(-c2nc3c(F)cc(C4CCN(C5CC6CCC(C5)N6CC5CC5)CC4)cc3n2C2CC2)cc1` (single isomer, unassigned) [Example 324, 1-cyclopropyl-6-(1-(8-(cyclopropylmethyl)-8-azabicyclo[3.2.1]octan-3-yl)piperidin-4-yl)-4-fluoro-2-(4-(methylsulfonyl)phenyl)-1H-benzo[d]imidazole], the IC50 at human TLR9 (setting [1]) is 42 nM; against human TLR9 (setting [2]), 42 nM; at human TLR7, 1.5 µM; at human TLR8, more than 50 µM.
Turning to `Cc1cc(C2CCN(C3CC4CCC(C3)N4CC3CC3)CC2)cc2[nH]c(-c3ccc(S(C)(=O)=O)cc3)nc12` (centres unmarked) [Example 336, 6-(1-(8-(cyclopropylmethyl)-8-azabicyclo[3.2.1]octan-3-yl)piperidin-4-yl)-4-methyl-2-(4-(methylsulfonyl)phenyl)-1H-benzo[d]imidazole], the IC50 at human TLR9 (setting [1]) was 77 nM; on human TLR9 (setting [2]), 77 nM; on human TLR7, 25.4 µM; on human TLR8, more than 50 µM.
On to `Cc1cc(C2CCN(C3CCCN(C4CCC4)CC3)CC2)cc2c1nc(-c1ccc(S(C)(=O)=O)cc1)n2C` (single isomer, unassigned) [Example 111, 6-(1-(1-cyclobutylazepan-4-yl)piperidin-4-yl)-1,4-dimethyl-2-(4-(methylsulfonyl)phenyl)-1H-benzo[d]imidazole], for which the IC50 on human TLR9 (HEK-Blue cells overexpressing human TLR9, stimulated with ODN2006 5 nM, 22 hour incubation, reporter readout) is 24 nM; at human TLR7, 1.5 µM; on human TLR8, more than 50 µM.
Turning to `Cn1c(-c2ccc(S(C)(=O)=O)cc2)nc2c(F)cc(C3CCN(C4CC5CCC(C4)N5C4CCC4)CC3)cc21` (single isomer, unassigned) [Example 293, 6-(1-(8-cyclobutyl-8-azabicyclo[3.2.1]octan-3-yl)piperidin-4-yl)-4-fluoro-1-methyl-2-(4-(methylsulfonyl)phenyl)-1H-benzo[d]imidazole], the IC50 was determined as 11 nM on human TLR9 (setting [1]), 11 nM at human TLR9 (setting [2]), 8.2 µM on human TLR7 and 44.2 µM at human TLR8.
For the molecule `Cc1cc(C2CCN(C3CC4CCC(C3)N4CC3CCC3)CC2)cc2c1nc(-c1ccc(S(C)(=O)=O)cc1)n2C` (single isomer, unassigned) [Example 156, 6-(1-(8-(cyclobutylmethyl)-8-azabicyclo[3.2.1]octan-3-yl)piperidin-4-yl)-1,4-dimethyl-2-(4-(methylsulfonyl)phenyl)-1H-benzo[d]imidazole], the IC50 against human TLR9 is 31 nM; at human TLR9 (setting [1]), 31 nM; at human TLR7 it was 8.9 µM; at human TLR8 it was more than 25 µM.
